This note sets out measurements from US10308631B2, “Selective anti-cancer compounds” (NATIONAL UNIVERSITY OF SINGAPORE, priority 2015, dated 2019).

In data set [1] the test system is caspase-3/7 activity in oncogene-transformed human fibroblast BJ cells. In words: Caspase-3/7 Glo assay. To be noted: 2.5 and 5 μM, 48 h. The data set is classed as cell-based. As for the experimental part: (§1) FIGS. 5B, C provide a representation of an immunoblot analysis to examine the PARP or caspase-3 cleavage (B) and a histogram showing Caspase-3/7 activities, plotted as fold induction compared to DMSO-treated cells (C). BJ normal and transformed cells were treated with Compound 1 (a131) for 48 h. Cells were harvested and total lysates were analysed by detecting cleaved PARP or caspase-3 or caspase-3/7 activities as markers for apoptotic induction. […] Student's t-test was performed to determine the statistical significance (**=p<0.001, ***=p<0.0001, n.s.=no significance).
(§2) Whether Compound 1 (a131)-induced cancer cell-lethality was mediated by apoptosis or non-apoptotic programmed cell death was determined. For this purpose, isogenic non-transformed and oncogene-transformed human fibroblast BJ cell lines were cultured in DMEM supplemented with 10% FBS. The cells were treated with Compound 1 (2.5 μM and 5 μM, DMSO). 48 h after treatment, total cell lysates were prepared for immunoblot analysis using antibodies against cleaved PARP and cleaved caspase-3, well-known markers for apoptosis. In addition, a fraction of total cell lysates was also subjected to Caspase-3/7 Glo (Promega) assay to measure the combined activity of caspase 3/7. This was determined using caspase-Glo 3/7 Assay Kit (Promega) and its activity was normalized to a number of viable cells as determined by MTT assay.

Data set [2] concerns cleaved PARP and caspase-3 in oncogene-transformed human fibroblast BJ cells. In words: Immunoblot of cleaved PARP and cleaved caspase-3. The data set is classed as cell-based. As to conditions: 2.5 and 5 μM, 48 h. How it is done: as §1, §2
Data set [3] concerns non-transformed normal BJ cells. In words: Reversibility of cell cycle arrest after wash-out (cell counting). It counts as cell-based, human. To be noted: 5 μM for 2, 3, 6 or 11 days, then wash-out. The source says: Non-transformed normal BJ cells were synchronized in G1 phase of the cell cycle by culturing in serum-starved conditions (0.1% FBS) for 2 days. Subsequently, cells were synchronously released in fresh media with 10% FBS and further treated with Compound 1 (a131) for 2, 3, 6 or 11 days. After treatment for the required amount of time, Compound 1 (a131) was removed by washing cells twice with fresh media, and culturing of the washed cells was continued in fresh media for up to 11 days. Cells were harvested and total numbers of cells, counted using automated Sceptor cell counter, were plotted with standard deviation (triplicates).
As shown in Biology Examples 5 and 7, Compound 1 and its derivatives, which inhibit both lysosome function and mitosis, induce cell death only in transformed BJ cells, while inducing cell cycle arrest in isogenic non-transformed BJ cells. However, it was not fully clear if the cell cycle arrest was permanent or reversible. Therefore, to evaluate whether the effect was permanent or reversible, non-transformed normal BJ cells were synchronized in the G1 phase of the cell cycle by culturing them in DMEM media with 0.1% FBS for 2 days. […] At various time-points, the adherent cells were harvested with trypsin (Invitrogen) and the total number of cells was counted using automated Sceptor cell counter (Millipore).

In data set [4] the test system is NCC19. In words: MTT growth inhibition (GI50). It counts as cell-based. As to conditions: Homo sapiens, NCC19, gastric cancer, 72 h. As for the experimental part:
Having shown that Compound 1 and its derivatives are effective against HeLa cervical cancer cells and human fibroblast BJ cell lines, Compound 1 was then tested against a panel of thirty different human cancer cells lines derived from gastric, colon, liver, breast, lung and cervical tumours and five different human normal cell lines, which were normal fibroblast cell lines (BJ normal, IMR90, WI38) and retinal pigmented epithelium cell lines (ARPE-19, hTert-immortalized RPE-1).
The cell lines detailed in Table 2, below, were cultured in the media shown and treated with Compound 1 at a range of different concentrations (from 0.1 μM to 10 μM) for 72 h in triplicate and a mean concentration value for Compound 1 to achieve 50% growth inhibition (GI50) in each cell line was determined by use of the MTT assay.
The MTT assay was performed by adding thiazolyl blue tetrazolium bromide (MTT reagent, Invitrogen) at a concentration of 0.5 mg/mL to each cell culture and the resulting mixture incubated for 4 h at 37° C. The medium was then removed, and the blue dye remaining in each well was dissolved in DMSO by mixing with a microplate mixer. The absorbance of each well at 540 nm and 660 nm was measured using a microplate reader (Benchmark plus, BIO-RAD). The optical density (OD) values were calculated by subtracting the absorbance at 660 nm from the absorbance at 540 nm. Mean OD values from control cells containing only DMSO treated wells were set as 100%. The resulting GI50 values (in μM) are set out in Table 2 below.

A short description of data set [5]: Aqueous solubility. The data set is classed as physicochemical. As to conditions: compared with Compound 1.

For orientation: GI50 means the concentration at which growth is held to half of that of the control. A low value points to more potent growth inhibition. On to `N#C/C(=C\c1cccc2cnccc12)c1c[nH]c2ccccc12` [Compound 1, (Z)-2-(1H-indol-3-yl)-3-(isoquinolin-5-yl)acrylonitrile], for which, in data set [1], the caspase-3/7 activity result was “significant induction of caspase-3/7 activity”. Besides, the “levels of cleaved PARP and caspase-3” value in data set [2] is “markedly increased the levels of both cleaved PARP and caspase-3”. Besides, the “recovery of proliferation after removal of compound” value in data set [3] was “removal of Compound 1 from the media is sufficient to enable these cells to recover from cell cycle arrest”. The same compound showed a GI50 in data set [4] of 4.6 µM.

Consider `CN1CCN(CC(=O)n2cc(/C(C#N)=C/c3cccc4cnccc34)c3ccccc32)CC1` [Compound 16, (Z)-3-(isoquinolin-5-yl)-2-(1-(2-(4-methylpiperazin-1-yl)acetyl)-1H-indol-3-yl)acrylonitrile], for which the aqueous solubility result in data set [5] is “improved aqueous solubility”.
